Results from patent US20220217970A1, “Perfusion Regulated Organ Therapeutics with Enhanced Controlled Testing” (priority 2021, published 2022).

Legend:
[1] = system: split human marginal donor liver (MDL) lobes; assay: Serological liver injury markers during PROTECT normothermic perfusion of split liver lobes (Experiment 2); settings: DM infusion 0.6 mmol/L, listed as DMAT
Source text: In order to provide anatomic perfusion, a novel NMP described above and shown in FIGS. 1 and 2 was developed using an extra-corporal membrane oxygenation (ECMO) roller pump (Sorin/Stockert S3) with a modified circuit to provide dual blood supply to the hepatic artery and portal vein. Incorporated into this design was an arterial supply that passes through an oxygenator (Capiox Fx) and was connected to the hepatic artery.
Portal venous blood supply bypassed the oxygenator, was delivered to a reservoir, and then flowed by gravity into the portal vein. Pressure was regulated by the intrinsic resistance within the liver's arterial and portal venous circulations, combined with the resistance within the two limbs of the circuit and the flow delivered to each. […]
The circuit was monitored under guidance from a University certified ECMO perfusionist and the hospital ECMO physician team. […]
During each perfusion run (Table 1), laboratory analysis was carried out at regular intervals. Perfusate pH, pCO2, pO2, bicarbonate levels, and serum electrolytes (Na^+, K^+, Cl^−, ionized Ca^2+) were monitored every hour by automated blood gas analysis of both arterial and portal venous blood samples. […] Serum markers of liver injury, specifically AST, ALT, GGT, and alkaline phosphatase, were monitored hourly. […]
(§1) DM Dosing: In addition to the liver lobe weight, the volume of the cold preservation solution was measured. […]

[2] = system: split human marginal donor liver (MDL) lobes; assay: Ki67 and CK-7 immunohistochemistry labeling index of perfused split lobes (Experiment 2)
Protocol: As a proof of concept, the system 10 was used to test the effect on IRI by deferoxamine (DM), which is a chelator of iron and a ferroptosis regulator. During the testing, one liver lobe was used as an internal control for the treated lobe. Ferroptosis, an iron-dependent form of programmed cell death, has been implicated as a mechanism of pathogenesis in models of liver, kidney, and lung reperfusion injury. […] In the DM Agent Treated (DMAT) lobe, DM was administered to one split liver segment, while the other segment served as the No Agent Internal Control (NAIC) lobe. This experiment was deemed as Experiment 2.
as §1
Liver biopsy tissue from each liver segment was fixed in 10% buffered formalin for 24 hours. […] The following describes the specific stains and the methods utilized for quantification.
Ki67 labeling index: The nuclear antigen Ki67 is expressed in the cell cycle phases G1, S, G2 and M, however not during G0. The percentage of the Ki67 positive nuclei are expressed as a labeling index, which provides an objective cell proliferation index in the tissues. […] All the positive (immunoreactive) hepatic nuclei were calculated and subsequently divided by the total number of cells in 5 non-overlapping high-power fields. […]

CC(=O)N(O)CCCCCNC(=O)CCC(=O)N(O)CCCCCNC(=O)CCC(=O)N(O)CCCCCN [Deferoxamine]
ΔALT (change in serum ALT over the course of the experiment) ([1]; Experiment 2, DM Agent Treated lobe vs No Agent Internal Control lobe (ΔALT NAIC 586)): −405 | ΔAST (change in serum AST over the course of the experiment) ([1]; Experiment 2, DM Agent Treated lobe vs No Agent Internal Control lobe (ΔAST NAIC 617)): −380 | CK-7 expression (labeling index, bile duct proliferation) ([2]; Experiment 2, DMAT lobe (NAIC 0.30, p=0.29, n=5)): 0.26 | Ki67 index (hepatocellular proliferation) ([2]; conclusion of Experiment 2, DMAT lobe (NAIC 0.38, p=0.16)): 0.32
